The results in this text go back to patent publication US20190358288A1, “COMPOSITIONS AND METHODS FOR TREATING OR PREVENTING ENVIRONMENTAL ENTEROPATHY” (INNOVATE BIOPHARMACEUTICALS, INC., priority 2017, published 2019).

The test system of the test is T84 monolayers. The text has this: T84 cells are a human colonic epithelial cell line that differentiates and creates tight junctions. T84 cells are a model for colonic inflammation.

Where no end group is shown, it is not given here.

Regarding GGVLVQPG (SEQ ID NO:1) [Larazotide], the “concentration dependence of the effect of protecting T84 monolayers from disruption by Streptococcus KS47” value (FIG. 3) is “concentration dependent”. Besides, the “protection of T84 monolayers from disruption by Shigella” value (T84 human colonic epithelial cell line, FIG. 1) is listed as “does not protect”.
